Results on twelve molecules are retold here after ChEMBL document CHEMBL1201862, “PubChem BioAssay data set” (2004).

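1) Cells in 96-well plates. 2) Compound, 48 h, 5 concentrations. 3) Linear interpolation between surrounding doses. 4) Unreached endpoint = highest concentration. The concentration for 50% growth inhibition is given as GI50.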 Activity calls are given as the source filed them. Rule as the data show it: active = GI50 up to about 1.1 µM and inactive = higher. A value given as a limit tells only on which side of the number the result lay.

Some test systems named below: ACHN; EKVX; HOP-92; K562; KM12; Malme-3M; NCI-H226; OVCAR-4; OVCAR-8; SK-MEL-2; SK-MEL-5; SN12C; SNB-19; UACC-257; A498; HCC 2998; HL-60; RPMI-8226; SF-539; TK-10.
What all share (experiment): NCI-60 cell line screen, 48 h

For the molecule `CN(C)CCCCN1CCc2c(n(C)c3ccccc23)C1=O`, the GI50 with ACHN is > 77.1 µM (inactive); with EKVX, 51.5 µM (inactive); in the assay with HOP-92, 32 µM (inactive); in the assay with K562, 23.4 µM (inactive); with KM12 it was 68.7 µM (inactive); in the assay on Malme-3M, 21.7 µM (inactive). The GI50 in the assay on NCI-H226 was > 61.5 µM (inactive); with OVCAR-4, > 86.7 µM (inactive); in the assay with OVCAR-8 it was > 83.4 µM (inactive); with SK-MEL-2, 25.9 µM (inactive); in the assay on SK-MEL-5, 21.3 µM (inactive); with SN12C, 68.1 µM (inactive). Besides, the figures for the GI50 with SNB-19 and with UACC-257 were > 76.9 µM (inactive) and 17.2 µM (inactive), respectively.
`CC[P+](C)(Cc1ccccc1)c1ccccc1` (centres undefined): the GI50 in the assay with A498 was > 100 µM (inactive); in the assay on ACHN, > 100 µM (inactive); in the assay with EKVX, > 100 µM (inactive); in the assay with HCC 2998, > 100 µM (inactive); in the assay on HL-60, 90.8 µM (inactive); in the assay with K562 it was > 100 µM (inactive). For the same molecule, the GI50 was > 100 µM (inactive) in the assay on KM12; 91.8 µM (inactive) with Malme-3M; > 100 µM (inactive) in the assay with NCI-H226; > 100 µM (inactive) in the assay with OVCAR-4; > 100 µM (inactive) with OVCAR-8; 57.4 µM (inactive) in the assay with RPMI-8226. The GI50 was > 100 µM (inactive) in the assay on SF-539; > 100 µM (inactive) in the assay with SK-MEL-2; 51.3 µM (inactive) in the assay with SK-MEL-5; > 100 µM (inactive) in the assay with SN12C; > 100 µM (inactive) in the assay on SNB-19; > 100 µM (inactive) with TK-10. Besides, in the assay with UACC-257, the GI50 was > 100 µM (inactive).
With `CC(=O)c1cccc(C)c1C(=O)O`, the GI50 with A498, in the assay on ACHN, with EKVX, in the assay with HCC 2998, in the assay with HL-60 and in the assay with K562 was > 100 µM (inactive) throughout. For the same molecule, the GI50 in the assay with KM12, in the assay on Malme-3M, in the assay on NCI-H226, in the assay on OVCAR-4, in the assay on OVCAR-8 and in the assay with RPMI-8226 was > 100 µM (inactive) in each case. Moreover, the GI50 in the assay on SK-MEL-2, in the assay on SK-MEL-5, in the assay with SN12C, in the assay on SNB-19, in the assay on TK-10 and with UACC-257 was > 100 µM (inactive) throughout.
For the molecule `CC(C)/C(Cl)=N\OC(=O)Nc1cccc(Cl)c1`, the GI50 with A498 is 17.4 µM (inactive); in the assay on ACHN, 6.22 µM (inactive); in the assay on EKVX, 16.3 µM (inactive); in the assay with HCC 2998, 17 µM (inactive); in the assay on HL-60, 1.71 µM (inactive); in the assay on K562, 2.07 µM (inactive). The GI50 with KM12 is 16.5 µM (inactive); with Malme-3M, 11.6 µM (inactive); with NCI-H226 it was 20.8 µM (inactive); with OVCAR-4 it was 13.3 µM (inactive); with OVCAR-8, 15.4 µM (inactive); with RPMI-8226, 4.45 µM (inactive). Further, the GI50 was 18.9 µM (inactive) in the assay on SF-539; 15.5 µM (inactive) in the assay with SK-MEL-2; 13.5 µM (inactive) with SK-MEL-5; 16.1 µM (inactive) with SN12C; > 100 µM (inactive) in the assay with SNB-19; 15.3 µM (inactive) in the assay with TK-10. Further, the GI50 with UACC-257 was 13.6 µM (inactive).
Take `Cc1cc(C)c2c(c1)CN1CN2Cc2cc(C)cc(C)c21`: the GI50 with ACHN is 18 µM (inactive); in the assay on EKVX, 16.9 µM (inactive); in the assay with HL-60, 26.4 µM (inactive); in the assay with HOP-92 it was > 10 µM (inactive); in the assay with K562, 27.7 µM (inactive); in the assay with KM12, 18.2 µM (inactive). The GI50 with NCI-H226 was 26 µM (inactive); in the assay on OVCAR-4 it was 18.3 µM (inactive); in the assay with OVCAR-8, 17.8 µM (inactive); with RPMI-8226, 19.9 µM (inactive); in the assay with SF-539 it was > 10 µM (inactive); with SK-MEL-2 it was > 10 µM (inactive). Further, the values for the GI50 in the assay with SN12C, in the assay on SNB-19 and in the assay on TK-10 were 16.9 µM (inactive), < 0.01 µM (active) and 19 µM (inactive), respectively.
In the case of `c1csc(-c2sc(-c3ccsc3)cc2Cc2ccsc2)c1`, the GI50 with EKVX, in the assay on HCC 2998, in the assay on HL-60, with HOP-92, with K562 and in the assay with KM12 was > 10 µM (inactive) in each case. The GI50 in the assay with Malme-3M, in the assay on OVCAR-4, in the assay with OVCAR-8, in the assay on RPMI-8226, in the assay on SK-MEL-5 and in the assay with SN12C was > 10 µM (inactive) throughout. In addition, the GI50 in the assay on TK-10 and in the assay with UACC-257 was > 10 µM (inactive) in each case.
`O=C(NN=C1CCN(Cc2ccccc2)CC1)C(O)(c1ccccc1)c1ccccc1`: the GI50 in the assay with EKVX, in the assay with HCC 2998, in the assay on HL-60, with HOP-92, with KM12 and with Malme-3M was > 100 µM (inactive) each time. Moreover, the GI50 in the assay on NCI-H226, in the assay on OVCAR-4, in the assay on OVCAR-8, in the assay with RPMI-8226, in the assay with SF-539 and in the assay with SK-MEL-5 was > 100 µM (inactive) in each case. Besides, the GI50 with SN12C, in the assay with SNB-19, in the assay on TK-10 and in the assay on UACC-257 was > 100 µM (inactive) throughout.
Turning to `CC(C)N(C(=O)C12C3C4C1C1C2C3C41C(=O)N(C(C)C)C(C)C)C(C)C` (centres undefined), the GI50 with A498, with ACHN, in the assay with EKVX, in the assay on HCC 2998, in the assay on HL-60 and in the assay on K562 was > 50 µM (inactive) each time. Besides, the GI50 in the assay on KM12, in the assay with Malme-3M, with NCI-H226, in the assay with OVCAR-4, with OVCAR-8 and in the assay with RPMI-8226 was > 50 µM (inactive) each time. Moreover, the GI50 in the assay on SF-539, with SK-MEL-2, with SK-MEL-5, in the assay with SN12C, with SNB-19 and in the assay on TK-10 was > 50 µM (inactive) in each case. In addition, in the assay on UACC-257, the GI50 was > 50 µM (inactive).
For `CC(=O)NC(Cc1ccc(OP(=O)(OCc2ccc([N+](=O)[O-])o2)N(C)CCCCCl)cc1)C(=O)NC(C)c1ccc(OCC2CCCCC2)c(C(N)=O)c1` (centres undefined), the GI50 with A498 was 18.9 µM (inactive); in the assay with ACHN it was 8.15 µM (inactive); in the assay with HCC 2998, 1.82 µM (inactive); with HL-60 it was 2.79 µM (inactive); in the assay with K562 it was 3.91 µM (inactive); with KM12 it was 2.68 µM (inactive). Further, the GI50 with Malme-3M is 1.88 µM (inactive); in the assay on NCI-H226, 5.94 µM (inactive); in the assay with OVCAR-4, 3.66 µM (inactive); with OVCAR-8 it was 7.48 µM (inactive); in the assay with RPMI-8226, 1.72 µM (inactive); in the assay with SF-539 it was 2.08 µM (inactive). Moreover, the GI50 was 3.08 µM (inactive) in the assay on SK-MEL-2; 1.61 µM (inactive) in the assay with SK-MEL-5; 2.34 µM (inactive) in the assay on SN12C; 3.9 µM (inactive) with SNB-19; 11.4 µM (inactive) in the assay with TK-10; 1.93 µM (inactive) in the assay on UACC-257.
Turning to `Oc1nnc2c(-c3ccccc3)n[nH]c2n1`, the GI50 was > 100 µM (inactive) with A498; > 100 µM (inactive) with ACHN; 16.4 µM (inactive) in the assay on EKVX; > 100 µM (inactive) in the assay with HCC 2998; > 100 µM (inactive) in the assay with HL-60; > 100 µM (inactive) with K562. The GI50 is > 100 µM (inactive) in the assay with KM12; > 100 µM (inactive) in the assay with NCI-H226; > 100 µM (inactive) in the assay on OVCAR-4; > 100 µM (inactive) in the assay on OVCAR-8; > 100 µM (inactive) in the assay on RPMI-8226; 15 µM (inactive) in the assay on SF-539. In addition, the GI50 in the assay on SK-MEL-2, in the assay with SN12C, in the assay on SNB-19, in the assay on TK-10 and in the assay with UACC-257 was > 100 µM (inactive) throughout.
On to `O=C(O)c1ccc(Nc2nc3nn(Cc4ccccc4)cc3c(=O)s2)cc1`, for which the GI50 in the assay on ACHN, in the assay with EKVX, with HCC 2998, in the assay on HL-60, in the assay on HOP-92 and with K562 was > 100 µM (inactive) in each case. In addition, the GI50 in the assay on KM12, with Malme-3M, in the assay with OVCAR-8, with RPMI-8226, in the assay on SF-539 and in the assay on SK-MEL-2 was > 100 µM (inactive) in each case. Also, the GI50 in the assay on SK-MEL-5, in the assay with SN12C, in the assay on SNB-19, in the assay with TK-10 and with UACC-257 was > 100 µM (inactive) in each case.
Regarding `Cc1ccc(C2OC(COCc3ccc(Cl)cc3)C(OCc3ccc(Cl)cc3)C2O)cc1` (centres undefined), the GI50 in the assay on ACHN is 15.1 µM (inactive); in the assay on EKVX, 13 µM (inactive); with HCC 2998, 19.3 µM (inactive); in the assay with HOP-92 it was 3.18 µM (inactive); in the assay with K562 it was 4.42 µM (inactive); in the assay on KM12, 9.38 µM (inactive). Besides, the GI50 in the assay on Malme-3M is > 10 µM (inactive); in the assay with NCI-H226, 1.36 µM (inactive); with OVCAR-4 it was 17.8 µM (inactive); in the assay with OVCAR-8, 13.7 µM (inactive); with RPMI-8226, 4.76 µM (inactive); with SF-539, 16 µM (inactive). Also, the GI50 was 11.1 µM (inactive) with SK-MEL-2; 12.1 µM (inactive) in the assay with SK-MEL-5; 3.65 µM (inactive) with SN12C; 17.8 µM (inactive) in the assay on SNB-19; 12.7 µM (inactive) in the assay on TK-10; 17 µM (inactive) in the assay with UACC-257.
